The values that follow come from US10781325B2, “Curable composition, curable ink, accommodating container, image forming device, image forming method, cured matter, and acrylamide compound” (Ricoh Company, Ltd., priority 2016, dated 2020).

A short description of data set [1]: Measuring of viscosity of curable compound (cone plate type rotatory viscometer). The class given is physicochemical. As to conditions: cone rotor, 50 rpm. The procedure:
Viscosity of the thus-obtained curable compound was measured by a cone plate type rotatory viscometer (VISCOMETER TVE-22L, manufactured by TOKI SANGYO CO., LTD.) using a cone rotor (1°34′×R24) at a number of rotation of 50 rpm and at 25 degrees C. of hemathermal circulating water.

The subject of data set [2] is female rats of Slc: Wistar/ST series. The data set can be described thus: Limiting test based on Acute Oral Toxicity Test (OECD TG423, Acute Toxic Class Method). The class given is in vivo, rat. Particulars: single gavage dose 2,000 mg/kg weight of body, six animals per testing article, observed 14 days. The text has this:
The curable compounds of Example 1a, Example 4a, Comparative Example 1a, and Comparative Example 2a were subject to the limiting test based on Acute Oral Toxicity Test (OECD TG423) according to Acute Toxic Class Method in the following manner to evaluate safeness.
Regarding the curable compound of the present disclosure as test article, 24 female rats of Slc: Wistar/ST series of 5 week old as animal used were ordered for Japan SLC, Inc. The animals were habituated for one week. No abnormalities were found in all of the rats (animals used) during the habituation period.
Based on the body weights measured two days before the initiation of administration, they were categorized into four groups (six rats per group) by the body weight stratified random sampling method so that the body weight of each individual was within ±20% of the average body weight of all of the individuals. The individuals not classified into the groups were excluded from the test.
First group, Example 1a: Testing article: curable compound represented by the chemical structure a1-1, Amount of administration: 2,000 mg/kg weight of body, number of animals used: six
Second group, Example 4a: Testing article: curable compound represented by the chemical structure d1-1, Amount of administration: 2,000 mg/kg weight of body, number of animals used: six
Third group, Comparative Example 1a: Testing article: N,N-diethylacrylamide represented by the chemical structure (1), Amount of administration: 2,000 mg/kg weight of body, number of animals used: six
Fourth group, Comparative Example 2a: Testing article: Acrylamide represented by the chemical structure (2), Amount of administration: 2,000 mg/kg weight of body, number of animals used: six
100 mg of the testing article was weighed using a measuring flask and water was added as solvent to make 1 mL in total. […] The preparation liquid of the testing article was prepared on the day of administration.
The animals used were on fasting except for water for 17 hours before administration. The mass was measured after the fasting and the testing article was provided by gavage administration one time using a gastric tube. After the administration, no food was given for another three to four hours.
The administration was on one dose of 2,000 mg/kg weight of body and six animals were used per testing article.
Note that the observation was counted from the day of the initiation of administration being regarded as Day 1.
The number of animals who died during the test period was counted.

In the case of `C=CC(=O)N(CC)CC` [Comparative Example 1a, N,N-diethylacrylamide, reference compound], in data set [1], the “Viscosity (25 degrees C., mPA · s)” value stood at 2.6 mPA · s. Besides, the “Safeness (number of dead)” value in data set [2] stood at 6.

For the compound `C=CC(=O)N(C)CCOC` [Comparative Example 2a, reference compound], in data set [1], the “Viscosity (25 degrees C., mPA · s)” value was 2.4 mPA · s. The “Safeness (number of dead)” value in data set [2] is 6.

Take `C=CC(=O)N(CC(=O)OCC)CC(=O)OCC` [Comparative Example 3a, reference compound]: the “Viscosity (25 degrees C., mPA · s)” value in data set [1] was determined as 69.2 mPA · s.

Take `C=CC(=O)N(C)CCOC(C)=O` [Example 1a]: in data set [1], the “Viscosity (25 degrees C., mPA · s)” value amounted to 8.4 mPA · s. The “Safeness (number of dead)” value in data set [2] stood at 3.

As to `C=CC(=O)N(C)CCOC(=O)C(C)C` [Example 2a], the “Viscosity (25 degrees C., mPA · s)” value in data set [1] turned out to be 9.5 mPA · s.

Take `C=CC(=O)N(CCOC(C)=O)C(C)(C)C` [Example 3a]: in data set [1], the “Viscosity (25 degrees C., mPA · s)” value is given as 16.4 mPA · s.

As to `C=CC(=O)N(C)CC(=O)OC` [Example 4a], in data set [1], the “Viscosity (25 degrees C., mPA · s)” value is reported as 12.3 mPA · s. Also, the “Safeness (number of dead)” value in data set [2] is 0.

On to `C=CC(=O)N(C)CC(=O)OCC` [Example 5a], for which the “Viscosity (25 degrees C., mPA · s)” value in data set [1] worked out at 11.4 mPA · s.

Take `C=CC(=O)N(C)CC(=O)OCCCC` [Example 6a]: the “Viscosity (25 degrees C., mPA · s)” value in data set [1] came to 11.9 mPA · s.

Turning to `C=CC(=O)N(C)CC(=O)OC(C)C` [Example 7a], the “Viscosity (25 degrees C., mPA · s)” value in data set [1] is 14.1 mPA · s.

Take `C=CC(=O)N(CCC)CC(=O)OCC` [Example 8a]: in data set [1], the “Viscosity (25 degrees C., mPA · s)” value stood at 20.4 mPA · s.

Take `C=CC(=O)N(CC(=O)OC)C(C)C` [Example 9a]: the “Viscosity (25 degrees C., mPA · s)” value in data set [1] is 25.4 mPA · s.

Consider `C=CC(=O)N(CC(=O)OC(C)C)C(C)C` [Example 10a], for which the “Viscosity (25 degrees C., mPA · s)” value in data set [1] stood at 22.1 mPA · s.

For `C=CC(=O)N(CCCCCC)CC(=O)OC` [Example 11a], the “Viscosity (25 degrees C., mPA · s)” value in data set [1] stood at 29.9 mPA · s.

As to `C=CC(=O)N(CCCCCC)CC(=O)OCCCC` [Example 12a], in data set [1], the “Viscosity (25 degrees C., mPA · s)” value amounted to 23.7 mPA · s.

As to `C=CC(=O)N(C)C(C)C(=O)OC` (stereo not shown) [Example 13a], the “Viscosity (25 degrees C., mPA · s)” value in data set [1] was 8.9 mPA · s.

In the case of `C=CC(=O)N(C)C(C)C(=O)OCC` (stereo not shown) [Example 14a], the “Viscosity (25 degrees C., mPA · s)” value in data set [1] is 6.9 mPA · s.

For the compound `C=CC(=O)N(C)C(C)C(=O)OC(C)C` (stereo not shown) [Example 15a], in data set [1], the “Viscosity (25 degrees C., mPA · s)” value came to 6.8 mPA · s.
